Experimental data published in PMC5974779, “Prediction of Drug-Induced Hepatotoxicity Using Long-Term Stable Primary Hepatic 3D Spheroid Cultures in Chemically Defined Conditions” (Toxicological Sciences, 2018).
Where two headings read alike, the source gives them in different places.

Assays:
[1] = test system: primary human hepatocytes (PHH) 3D spheroids
in vitro = details: human
clinical DILI in man = details: cited from earlier work
[2] = cited from earlier work
[3] = ref DrugBank and Prescribers' Digital Reference database; cited from earlier work
PHH 2D sandwich cultures = details: cited from earlier work
[4] = test system: PHH spheroids (hanging-drop); details: cited from earlier work
[5] = test system: primary human hepatocytes (PHH) 3D spheroids; assay: CD-spheroid hepatotoxicity: ATP viability (CellTiter-Glo) of PHH 3D spheroids after 14 days repeated exposure at 1×, 5×, 20× cmax; details: PHH spheroids in chemically defined conditions, 20x Cmax
[6] = test system: PHH micropatterned cocultures with murine embryonic fibroblasts; details: micropatterned cocultures, 100x Cmax; ref Khetani 2013; cited from earlier work
[7] = therapeutic total cmax, ref PMID
[8] = PHH 2D sandwich cultures, 100x Cmax, ref Xu 2008
[9] = PHH hanging-drop spheroids, 100x Cmax, ref Proctor 2017
[10] = FDA drug labeling DILI concern, ref Chen et al., 2011
[11] = FDA drug labeling DILI score, ref Chen et al., 2011
[12] = clinical DILI classification in man (POS/NEG)
[13] = clinical DILI classification used in this study, Supplementary Table 2, ref Chen et al., 2011, Guo et al., 2005, O'Brien et al., 2006, Sakatis et al., 2012, Suzuki et al., 2010, Xu et al., 2008
[14] = clinical DILI classification, Supplementary Table 1, ref Chen et al., 2011, Guo et al., 2005, O'Brien et al., 2006, Sakatis et al., 2012, Suzuki et al., 2010, Xu et al., 2008
[15] = clinical DILI classification, ref Xu et al. (2008)
[16] = reported pattern of liver damage, Supplementary Table 2, ref literature

Row | Compound | Chemically defined spheroids (this study) 20x [1] | Classified as (clinical DILI in man; in vivo) | Clinical DILI class (panel heading of Figure 4) (clinical DILI in man; in vivo) | DILI in vivo (clinical DILI in man; in vivo) | FDA (0-8) (clinical DILI in man; in vivo) | FDA (Severity) (clinical DILI in man; in vivo) | Sakatis et al. (2012) (clinical DILI in man; in vivo) | Suzuki et al. (2010) (clinical DILI in man; in vivo) | Type of DILI (clinical DILI in man; in vivo) | Cmax [2, 7] [nM] | Extent of hepatic metabolism [3] | 2Dsw (Xu 2008) 100x (PHH 2D sandwich cultures; [8]) | Chemically defined spheroids (this study) 20x [5] | FDA (0-8) (clinical DILI in man; [11]) | DILI in vivo (clinical DILI in man; [12]) | Classified as (clinical DILI in man; [13]) | DILI in vivo (clinical DILI in man; [14]) | Xu et al. (2008) (clinical DILI in man; [15]) | Type of DILI (clinical DILI in man; [16]) | further results
1 | CC(CCc1ccccc1)NCC(O)c1ccc(O)c(C(N)=O)c1 (stereo not shown) [Labetalol] | Negative | POS | Severe DILI | POS | 8 | most DILI concern | Hepatotoxic | 3 | Hepatocellular injury | 2680 | Extensive | Positive |  |  |  |  |  |  |  | hepatotoxicity evaluation in CD-spheroids [1]: predicted to be DILI negative; viability at 14 days, 20 × cmax (in vitro): > 100%; O'Brien et al. (2003) (clinical DILI in man; in vivo): Severely; Xu et al. (2008) (clinical DILI in man; in vivo): Positive; hepatotoxicity detection in 2D sandwich cultures of PHH (PHH 2D sandwich cultures; 100× cmax, 24 h, high content imaging, ref Xu et al., 2008): flagged as hepatotoxic; reactive oxygen species levels in 2D sandwich cultures of PHH (PHH 2D sandwich cultures; ref Xu et al., 2008): only slight increases in reactive oxygen species levels
2 | CC(=O)N1CCN(c2ccc(OCC3COC(Cn4ccnc4)(c4ccc(Cl)cc4Cl)O3)cc2)CC1 (stereo not shown) [Ketoconazole] | Positive | POS | Severe DILI | POS | 8 | most DILI concern | Hepatotoxic | 2 | Hepatocellular injury or Cholestatic injury |  | Extensive |  |  |  |  |  |  |  |  | viability at 14 days, 1 × cmax (in vitro): < 10%; Guo et al. (2005) (clinical DILI in man; in vivo): 3; O'Brien et al. (2003) (clinical DILI in man; in vivo): Severely; Hanging-drop spheroids (Proctor 2017) 100x [4, 9]: Positive
3 | CC(COc1ccccc1)N(CCCl)Cc1ccccc1 (stereo not shown) [Phenoxybenzamine] |  | NEG | DILI negative | NEG | 0 | no DILI concern | non-hepatotixic |  | Non-hepatotoxic |  |  |  | Negative |  |  |  |  |  |  | Xu et al. (2008) (clinical DILI in man; in vivo): Negative; Cmax ([2]; human, in vivo): 180 nM; 2Dsw (Xu 2008) 100x (PHH 2D sandwich cultures): Negative; Hanging-drop spheroids (Proctor 2017) 100x [4]: Negative
4 | CNCCC=C1c2ccccc2CCc2ccccc21 [Nortriptyline] | Positive |  |  |  |  |  |  |  |  | 1500 | Extensive | Negative |  | 8 | POS | POS | POS | Positive | Hepatocellular injury | FDA (Severity) (clinical DILI in man; [10]): most DILI concern; MPCC (Khetani 2013) 100x [6]: Positive
5 | Cn1nnc2c(C(N)=O)ncn2c1=O [Temozolomide] |  |  |  |  |  |  |  |  |  | 26800 | Minimal | Negative | Negative | 4 | NEG | NEG | NEG | Negative | Non-hepatotoxic | Guo et al. (2005) (clinical DILI in man; DILI classification score, ref Guo et al. (2005)): 1
6 | Nc1c2c(nc3ccccc13)CCCC2 [Tacrine] | Negative | POS | High DILI concern | POS |  |  |  |  | Hepatocellular injury |  |  |  |  |  |  |  |  |  |  | viability at 14 days, 20 × cmax (in vitro): > 100%; Cmax ([2]; human, in vivo): 70 nM; 2Dsw (Xu 2008) 100x (PHH 2D sandwich cultures): Negative; Hanging-drop spheroids (Proctor 2017) 100x [4]: Negative
7 | CC(CCc1ccc(O)cc1)NCCc1ccc(O)c(O)c1 (stereo not shown) [Dobutamine] |  |  |  |  |  |  |  |  |  | 1340 | Extensive | Negative | Negative | 0 | NEG | NEG | NEG | Negative | Non-hepatotoxic | FDA (Severity) (clinical DILI in man; [10]): no DILI concern
8 | Cc1ccc(C(=O)c2cc(O)c(O)c([N+](=O)[O-])c2)cc1 [Tolcapone] | Positive | POS | Severe DILI | POS | 8 | most DILI concern |  | 3 | Hepatocellular injury or Mixed hepatitis | 47600 | Extensive |  |  |  |  |  |  |  |  | viability at 14 days, 1 × cmax (in vitro): < 10%; Guo et al. (2005) (clinical DILI in man; in vivo): 3; Hanging-drop spheroids (Proctor 2017) 100x [4, 9]: Positive
